# Measurements from patent publication US10434086B2, “Combination therapies with curaxins” (Incuron, Inc., priority 2014, dated 2019).
# Where two headings read alike, the source gives them in different places.
# What was measured:
# [1] = tested on: NF-κB target genes (IL-8 and TNF); assay: Real-time PCR of NF-κB target genes (IL-8 and TNF) in HepG2 and Hep3B; type: cell-based; details: 2 h after exposure; basal and TNF-induced; both HCC cell lines
# [2] = tested on: HepG2 and Hep3B; details: HepG2 only (Hep3B is p53 null)
# Text: Specifically, the Western blots monitored expression of spt16, SSRP1, p53, p21, P-ERK, ERK, Mcl-1, and GAPDH (control). Panel A corresponds to the tumor-bearing nude mice from the HepG2 study whereas Panel B corresponds to the tumor-bearing nude mice from the Hep3B study.
# Specifically, the Western blots monitored the effect of drug treatment on expression of spt16, SSRP1, p53, p21, P-ERK, ERK, Mcl-1, and GAPDH (control) proteins, of which most are involved in cell cycle progression and regulation.
# [3] = tested on: HepG2 hepatocellular carcinoma tumors; assay: HepG2 study: CBL0137/sorafenib against HepG2 HCC tumor engrafts; type: in vivo, nude mice
# Text: (§1) Seventy and sixty female athymic nude mice were obtained for each H1975 Non-Small Cell Lung Cancer Xenograft study and split into treatment groups consisting of 10 animals per group (2 cages of 5 mice per cage).
# (§2) Preparation and subcutaneous implantation of tumor pieces: HepG2 tumors (passage 2 for HepG2 study and passage 1 for HepG2 (sub-dose CLB0137) study) or Hep3B tumors (passage 1 for Hep3B study and passage 9 for Hep3B (sub-dose CLB0137) study) were propagated in athymic nude mice and harvested from euthanized mice when they reached ˜500-900 mm^3. PDA tumors (passage 6) were propagated in SCID mice (both flanks) and harvested from euthanized mice when they reached ˜600-700 mm^3 in size. Harvested tumors were transferred to a sterile Petri dish containing RPMI-10% FBS medium or D-PBS plus penicillin/streptomycin. Enough media was added to bathe the tumor in order to ensure the viability of the transplant material. Tumors were dissected into 2 mm×2 mm cubes using a sterile scalpel. Care was taken to make the pieces as uniform in size and shape as possible. Tumor pieces were implanted into recipient mice immediately after being prepared.
# (§3) Tumor Size Measurements: Tumor size was measured by digital caliper in two dimensions (in mm): maximum length (l) and maximum width (w) taken perpendicular to one another. The measurements were used to calculate tumor volume according to the formula: tumor volume=(l×w2)/2 (w<l). The value obtained by this formula is also equal to the mass of the tumor in mg. Starting 2 days after tumor implantation, tumor measurements were made every 2-3 days prior to treatment initiation and then twice per week (e.g., on Day 1 (D1, the day of treatment initiation), D4, D8, D11, D15, D18, D22, D25, D29, D32, D36, D39, D43, D46, D50, D53 and D57). Tumor measurements were collected more frequently when tumor size approached the tumor size endpoint in order to prevent passing the endpoint between scheduled measurements.
# (§4) Administration of test and control articles: Mice were administered the designated solutions when the mean tumor volume per treatment group was ˜45-200 mm^3.
# (§5) The volume of the dosing solution administered orally or intravenously was 8 ml/kg of body weight, Intravenous injections were performed via the tail vein. Administration of drugs was done slowly without force on the syringe.
# (§6) Monitoring and Sample Collection: Twice daily, mice were monitored for mortality and morbidity for the duration of the experiment. […] All abnormal observations were documented and semi-quantitative scores were assigned for “body condition,” “posture,” and “activity.” Scores of 4, 3, 2, and 1 were assigned to normal conditions (4), and slightly (3), moderately (2) and severely (1) abnormal conditions, respectively. Cages were taken to a laminar flow hood and opened in order to clearly assess mouse activity.
# Data analysis: For all study groups, maximum tumor growth inhibition was calculated for Day 11, 13, or 15 (Day X). […] For each tumor, relative tumor size was calculated relative to its size on Day 1 when treatment was initiated (i.e., fold tumor growth). To calculate the maximum tumor growth inhibition for each tumor, the following equation was used: 100−(fold tumor growth drug-treated Day X/mean fold tumor growth vehicle-treated Day X)*100. Differences in tumor sizes between groups were determined using ANOVA analysis (GraphPad Prism 5 Software) where “*” refers to P=0.01-0.05 (significant), “**” refers to P=0.001-0.01 (very significant) and “***” refers to P<0.001 (extremely significant), Differences that were not statistically significant are indicated with “ns”.
# [4] = tested on: Hep3B hepatocellular carcinoma tumors; type: in vivo, nude mice
# Text: as §1, §2, §3, §4
# The volume of the dosing solution administered orally or intravenously was 8 ml/kg of body weight, Intravenous injections were performed via the tail vein. […]
# (§7) Monitoring and Sample Collection: Twice daily, mice were monitored for mortality and morbidity for the duration of the experiment. […] All abnormal observations were documented and semi-quantitative scores were assigned for “body condition,” “posture,” and “activity.” Scores of 4, 3, 2, and 1 were assigned to normal conditions (4), and slightly (3), moderately (2) and severely (1) abnormal conditions, respectively. […]
# (§8) Data analysis: For all study groups, maximum tumor growth inhibition was calculated for Day 11, 13, or 15 (Day X). […] For each tumor, relative tumor size was calculated relative to its size on Day 1 when treatment was initiated (i.e., fold tumor growth). […] Differences in tumor sizes between groups were determined using ANOVA analysis (GraphPad Prism 5 Software) where “*” refers to P=0.01-0.05 (significant), “**” refers to P=0.001-0.01 (very significant) and “***” refers to P<0.001 (extremely significant), Differences that were not statistically significant are indicated with “ns”. […] Tumor growth delay (T−C) was calculated by subtracting the median time for the control to reach the 1000 mm^3 size endpoint from that of the median time for the treated groups to reach the size endpoint.
# [5] = tested on: Hep3B hepatocellular carcinoma tumors; assay: Hep3B (sub-dose CBL0137) study; type: in vivo, nude mice
# Text: as §1, §2
# Tumor Size Measurements: Tumor size was measured by digital caliper in two dimensions (in mm): maximum length (l) and maximum width (w) taken perpendicular to one another. The measurements were used to calculate tumor volume according to the formula: tumor volume=(l×w2)/2 (w<l). The value obtained by this formula is also equal to the mass of the tumor in mg. […]
# as §7, §8
# [6] = tested on: HepG2 hepatocellular carcinoma tumors; assay: HepG2 (sub-dose CBL0137) study; type: in vivo, nude mice
# Text: as §1, §2, §3, §4, §5, §6
# Data analysis: For all study groups, maximum tumor growth inhibition was calculated for Day 11, 13, or 15 (Day X). […] For each tumor, relative tumor size was calculated relative to its size on Day 1 when treatment was initiated (i.e., fold tumor growth). To calculate the maximum tumor growth inhibition for each tumor, the following equation was used: 100−(fold tumor growth drug-treated Day X/mean fold tumor growth vehicle-treated Day X)*100. Differences in tumor sizes between groups were determined using ANOVA analysis (GraphPad Prism 5 Software) where “*” refers to P=0.01-0.05 (significant), “**” refers to P=0.001-0.01 (very significant) and “***” refers to P<0.001 (extremely significant), Differences that were not statistically significant are indicated with “ns”. […] Tumor growth delay (T−C) was calculated by subtracting the median time for the control to reach the 1000 mm^3 size endpoint from that of the median time for the treated groups to reach the size endpoint.
# [7] = median time to reach tumor size endpoint, treated minus control
smiles,measurement,setting,value
CNC(=O)c1cc(Oc2ccc(NC(=O)Nc3ccc(Cl)c(C(F)(F)F)c3)cc2)ccn1 [sorafenib],expression of NF-κB target genes (IL-8 and TNF),[1],"have an effect on expression of NF-κB target genes, albeit less than CBL0137"
same,induction of p53 and p21 by CBL0137 (Western blot),[2],blocked this induction
same,T/C %,"[3]; Day 15, sorafenib 15 mg/kg po daily, CBL0137 70 mg/kg iv Q4d",72.6%
same,mean change in tumor volume versus Day 1,"[3]; Day 15, sorafenib 15 mg/kg po daily, CBL0137 70 mg/kg iv Q4d, vehicle 9.0-fold",8.4 fold
same,antitumor efficacy (in words),[3]; HepG2 study summary,had no effect against HepG2 tumor growth
same,median survival time (MST),"[3]; HepG2 study, sorafenib 15 mg/kg po daily, CBL0137 70 mg/kg iv Q4d, 4 weeks, vehicle 15 days",15 days
same,Tumor growth delay (T−C),[3]; [7],5.65 days
same,tumors that grew showing some degree of regression during the course of treatment,"[3]; sorafenib 15 mg/kg po daily, CBL0137 70 mg/kg iv Q4d, vehicle 0/16",0/14
same,tumor growth inhibition,[4]; Day 11,67.2%
same,T/C %,"[4]; Day 11, size relative to vehicle-treated tumors",33.4%
same,mean change in tumor volume versus Day 1,"[4]; Day 11, vehicle 9.08-fold",2.98 fold
same,antitumor efficacy (in words),[4]; Hep3B study summary,efficacious in suppressing growth of Hep3B engrafts
same,median survival time (MST),"[4]; sorafenib 30 mg/kg po daily, CBL0137 60 mg/kg iv Q4d, 4 weeks, vehicle 11 days",25 days
same,mean change in tumor volume versus Day 1,"[5]; Day 15, vehicle 21.0-fold",10.2 fold
same,tumor growth inhibition,[5]; between Days 1 and 15,51.4%
same,antitumor efficacy (in words),"[5]; dT, time to endpoint, growth delay, T/C %",stronger beneficial effect
same,median survival time (MST),"[5]; sorafenib 30 mg/kg po daily, CBL0137 50 mg/kg iv Q4d, 4 weeks, vehicle 14.5 days",21.5 days
same,mean change in tumor volume versus Day 1,"[6]; Day 13, vehicle 13.2-fold",3.2 fold
same,antitumor efficacy (in words),[6]; HepG2 (sub-dose CBL0137) study summary,effectively suppressed HepG2 tumor growth
same,tumor growth inhibition,[6]; between Days 1 and 13,76%
same,median time to reach the tumor size endpoint,"[6]; by extrapolation from exponential growth curves, vehicle 12.6 days",29.6 days
same,Tumor growth delay (T−C),[6]; [7],17 days
same,median survival time (MST),"[6]; sorafenib 30 mg/kg po daily, CBL0137 60 mg/kg iv Q4d, 4 weeks, vehicle 13 days",27.5 days
